SMILES strings stand for the structures.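 Values below derive from 48-hour exposures of cells grown in 96-well plates, with endpoints linearly interpolated between the two concentrations bracketing the appropriate inhibition level. GI50 is the concentration that inhibits growth by half. TGI denotes the concentration required for complete inhibition of growth.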

What all share (experiment): growth of human tumour cells (NCI), 48 h
Assay [1] concerns CCRF-CEM leukemia.
The subject of assay [2] is SNB-75 CNS.
In assay [3] the test system is OVCAR-4 ovarian.
The subject of assay [4] is HOP-92 NSCLC.
Assay [5] has as its system HOP-62 NSCLC.
Assay [6] relates to SK-MEL-2 melanoma.
Assay [7] has as its system 786-0 renal.
For assay [8], the system named is EKVX NSCLC.
Assay [9] concerns PC-3 prostate.
The subject of assay [10] is UACC-257 melanoma.

Regarding `O=Cc1cn(Cc2cccc(Cl)c2)c2ccccc12`, the GI50 in assay [1] was 9.99 µM; in [2], 8.99 µM; in assay [3] it was 2.88 µM; in assay [4], 6.19 µM; in assay [5], 2.57 µM; in assay [6], 7.7 µM. Besides, the GI50 in [7] is 8.95 µM; in assay [8], 9.9 µM; in assay [9], 5.76 µM; in [10], 1.05 µM. Also, the TGI turned out to be 50.3 µM in assay [1]; 25.1 µM in assay [2]; 18.3 µM in assay [3]; 20.8 µM in assay [4]; 19.5 µM in assay [5]; 26.4 µM in assay [6]. The TGI in assay [7] was 24.4 µM; in assay [8], 25 µM; in assay [9], 22.4 µM; in assay [10], 3.63 µM.

With `Cc1nc2sc(C(=O)Nc3cccc4ccccc34)c(N)c2cc1C(=O)/C=C/c1ccccc1`, the GI50 was 0.178 µM in assay [1]; 0.232 µM in [2]; 1.02 µM in assay [3]; 0.37 µM in assay [4]; 0.311 µM in assay [5]; 0.501 µM in assay [6]. Further, the GI50 is 0.25 µM in assay [7], 1.14 µM in assay [8], 0.282 µM in assay [9] and 5.09 µM in assay [10]. Further, the TGI in [1] is over 24.9 µM; in assay [2], over 10.4 µM; in assay [3] it was over 15.7 µM; in [4] it was 8.97 µM; in assay [5], 2.71 µM; in assay [6], over 39 µM. In addition, the TGI is 0.979 µM in assay [7], over 36.7 µM in assay [8], 4.48 µM in assay [9] and over 30.3 µM in [10].

Turning to `C/C([O-])=C1\Cc2ccccc2C1=O.C/C([O-])=C1\Cc2ccccc2C1=O.CC[O-].CC[O-].[Ti+4]`, the GI50 in [1] is 13.9 µM; in assay [2], 21.6 µM; in [3], 27.2 µM; in [4] it was 18.7 µM; in assay [5] it was 13 µM; in assay [6] it was 13.5 µM. Besides, the GI50 was 20.8 µM in assay [7], 29.6 µM in assay [8], 22 µM in assay [9] and 38.6 µM in assay [10]. Further, the TGI in [1] was over 70.2 µM; in assay [2], 45.9 µM; in assay [3], over 84.5 µM; in [4], 55.4 µM; in [5], 50.3 µM; in assay [6], 33.6 µM. For the same molecule, the TGI was 77.6 µM in assay [7], over 100 µM in assay [8], 71.7 µM in [9] and over 100 µM in assay [10].

Regarding `CC(C)[C@@]12C[C@@H](OC(=O)COC(=O)/C=C/c3ccccc3)[C@@](C)(O1)[C@@H]1CC[C@@H](C)[C@H]1[C@@H]2OC(=O)/C=C/c1ccccc1`, the GI50 is over 100 µM in [1]; over 100 µM in assay [2]; over 100 µM in [3]; over 64.9 µM in assay [4]; over 100 µM in [5]; over 100 µM in [6]. The GI50 was over 27.1 µM in assay [7], over 100 µM in assay [8], over 100 µM in assay [9] and over 100 µM in assay [10]. Besides, the TGI in [1], in assay [2], in assay [3], in [4], in assay [5] and in assay [6] was over 100 µM each time. The TGI in [7], in [8], in [9] and in [10] was over 100 µM in each case.

`Cc1nc2cnc3cc(F)c(-c4ccc(Oc5ncccn5)cc4Cl)cc3c2n1[C@H]1CCN(C(=O)CO)C[C@@H]1F`: the GI50 is 1.69 µM in [1]; 12 µM in assay [2]; 20.8 µM in assay [3]; 0.403 µM in assay [4]; 0.642 µM in assay [5]; 0.059 µM in [6]. Further, the GI50 was 8.47 µM in assay [7], 3.23 µM in [8], 28.9 µM in [9] and 0.0269 µM in [10]. The TGI in assay [1] is over 76.8 µM; in assay [2] it was 36.2 µM; in assay [3], over 83.9 µM; in assay [4], 3.5 µM; in [5], 49.3 µM; in [6], 0.536 µM. The TGI was over 100 µM in assay [7], over 95.5 µM in assay [8], over 100 µM in assay [9] and 0.411 µM in assay [10].

Consider `O=C(/C=C/c1cccs1)c1ccc(Nc2nc(Nc3ccc(F)cc3)nc(Nc3ccc(F)cc3)n2)cc1`, for which the GI50 was 40.9 µM in assay [1]; 22.5 µM in assay [2]; 17.7 µM in assay [3]; 25.8 µM in assay [4]; over 100 µM in assay [5]; 44.4 µM in [6]. Also, the GI50 in assay [7] was 38.5 µM; in [8], 34.3 µM; in assay [9], 19 µM; in [10], 55.1 µM. The TGI in assay [1] is over 100 µM; in [2] it was 70.4 µM; in [3], 46.2 µM; in assay [4], 57.8 µM; in [5], over 100 µM; in [6], over 100 µM. For the same molecule, the TGI in assay [7] is over 100 µM; in assay [8] it was over 100 µM; in [9], 44.4 µM; in [10], over 100 µM.

In the case of `CCc1cccc2c3c(sc12)C(c1ccc(Cl)cc1)C(C#N)=C(N)O3` (stereo not given), the GI50 in assay [1] is 0.391 µM; in assay [2], 0.195 µM; in assay [3] it was 1.7 µM; in assay [4], 0.753 µM; in [5], 0.623 µM; in assay [6], 1.25 µM. The GI50 was 0.94 µM in assay [7], 1.08 µM in assay [8], 0.39 µM in assay [9] and 8.64 µM in assay [10]. The TGI in [1] came to 21.4 µM; in assay [2] it was 0.718 µM; in [3] it was 17.3 µM; in assay [4], 6.92 µM; in assay [5] it was 11.1 µM; in assay [6] it was 19.2 µM. Further, the TGI came to 14.7 µM in [7], 14.7 µM in assay [8], 10.7 µM in assay [9] and 33.1 µM in assay [10].

As to `Nc1ncnc2c1ncn2CC(O)C(=O)O` (stereo not given), the TGI in assay [1], in assay [2], in [3], in [4], in [5] and in [6] was over 100 µM each time. Besides, the TGI in assay [7], in [8], in [9] and in [10] was over 100 µM throughout.

Consider `Cn1ccnc1C(=O)/C=C/c1ccc(CC(=O)Nc2ccc(S(F)(F)(F)(F)F)cc2)cc1`, for which the GI50 in assay [1] is 0.538 µM; in assay [2] it was 1.83 µM; in assay [3], 2.35 µM; in [4], 1.13 µM; in assay [5] it was 2.58 µM; in [6], 3.59 µM. In addition, the GI50 in assay [7] is 0.788 µM; in assay [8] it was 2.84 µM; in [9], 0.534 µM; in assay [10] it was 4.35 µM. Besides, the TGI in [1] is 16.7 µM; in assay [2], 3.88 µM; in [3] it was 9.07 µM; in assay [4], 3.92 µM; in assay [5] it was 6.18 µM; in [6], 10 µM. Further, the TGI is 3 µM in assay [7], 8.23 µM in [8], 2.03 µM in assay [9] and 10.5 µM in assay [10].

The values are drawn from PubChem BioAssay (NCI).
